This is an account of results in ChEMBL document CHEMBL1201862, “PubChem BioAssay data set” (2004).

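How tested: cells in 96-well plates exposed to compound for 48 hours at five concentrations. At the GI50, growth is halved.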 Calls of active or inactive are those of the source. No stated cut-off is given here; in the data, active = GI50 up to about 1.1 µM and inactive = higher. Some results are limits rather than exact numbers.

Among the test systems are SK-MEL-28; A498; NCI-H460; HOP-62; HCT-116; CCRF-CEM; HOP-92; MOLT-4; UACC-62; SNB-19; SK-MEL-2; SR; TK-10; MDA-MB-231; Malme-3M; UACC-257; Hs-578T; NCI-H226; M14.
Experiment in all cases: growth of human tumour cells (NCI), 48 h

As for `C=CCSC1=N/C(=C\c2ccccc2)C(=O)N1CC=C`, the GI50 was > 83.8 µM (inactive) with SK-MEL-28; 23.1 µM (inactive) with A498; 41.6 µM (inactive) in the experiment on NCI-H460; 99.1 µM (inactive) with HOP-62; 29.8 µM (inactive) in the experiment on HCT-116; 22.9 µM (inactive) in the experiment with CCRF-CEM. For the same compound, the GI50 with HOP-92 was 17.1 µM (inactive); with MOLT-4 it was 2.7 µM (inactive); with UACC-62, 33.3 µM (inactive); with SNB-19, > 100 µM (inactive); with SK-MEL-2, 29.6 µM (inactive); with SR, 22.7 µM (inactive). Further, the GI50 was > 74.6 µM (inactive) with TK-10; 39.9 µM (inactive) in the experiment on MDA-MB-231; 47 µM (inactive) with Malme-3M; 33.2 µM (inactive) with UACC-257; 43 µM (inactive) in the experiment on Hs-578T; 28.5 µM (inactive) with NCI-H226. Further, the GI50 in the experiment on M14 is 67.9 µM (inactive).

For the compound `CC(C)CCCC(C)[C@H]1CC[C@H]2n3c(nc4ccccc43)CCC[C@]12C` (some centres not stated), the GI50 in the experiment with SK-MEL-28 was 18.6 µM (inactive); in the experiment with A498, 13.2 µM (inactive); with NCI-H460 it was 15.9 µM (inactive); with HOP-62, 20.7 µM (inactive); in the experiment on HCT-116 it was 12.9 µM (inactive); with CCRF-CEM, 18.3 µM (inactive). In addition, the GI50 is 17.7 µM (inactive) with HOP-92; 16.1 µM (inactive) in the experiment on MOLT-4; 16.2 µM (inactive) in the experiment on UACC-62; 19.4 µM (inactive) with SNB-19; 17.2 µM (inactive) in the experiment with SK-MEL-2; 15.8 µM (inactive) in the experiment on SR. Also, the GI50 is 17.4 µM (inactive) in the experiment on TK-10; 16 µM (inactive) in the experiment with MDA-MB-231; 21.9 µM (inactive) in the experiment on Malme-3M; 20 µM (inactive) in the experiment on UACC-257; 26.9 µM (inactive) in the experiment on Hs-578T; 15.6 µM (inactive) in the experiment on NCI-H226. Further, the GI50 in the experiment on M14 was 16.2 µM (inactive).

Turning to `CCCCCCN(CCCCCC)CCC(=O)c1ccc2cc(Br)c3ccccc3c2c1`, the GI50 is 77.1 µM (inactive) with SK-MEL-28; 36.3 µM (inactive) with A498; 30.5 µM (inactive) with NCI-H460; 40.4 µM (inactive) in the experiment with HOP-62; 78.3 µM (inactive) in the experiment on HCT-116; 19.4 µM (inactive) in the experiment with HOP-92. In addition, the GI50 is 25.8 µM (inactive) in the experiment with UACC-62; 44.3 µM (inactive) in the experiment on SNB-19; 27.3 µM (inactive) with SK-MEL-2; 0.318 µM (active) with SR; 26.4 µM (inactive) with TK-10; 26.7 µM (inactive) in the experiment with MDA-MB-231. The GI50 in the experiment with Malme-3M is 89.1 µM (inactive); in the experiment on UACC-257, 64.7 µM (inactive); in the experiment on Hs-578T, 33.3 µM (inactive); in the experiment on NCI-H226, 69.7 µM (inactive); in the experiment with M14 it was 82.6 µM (inactive).

Turning to `CCc1n[nH]c(=O)n1N1C(=O)C2CC=CCC2C1=O` (configuration not stated), the GI50 in the experiment with A498, with NCI-H460, in the experiment with HOP-62, with HCT-116, in the experiment on CCRF-CEM and in the experiment with HOP-92 was > 100 µM (inactive) throughout. Also, the GI50 in the experiment with MOLT-4, in the experiment with UACC-62, in the experiment on SNB-19, in the experiment on SK-MEL-2, in the experiment with SR and in the experiment with TK-10 was > 100 µM (inactive) each time. Also, the GI50 in the experiment with MDA-MB-231, in the experiment on Malme-3M, with UACC-257, in the experiment on Hs-578T, with NCI-H226 and with M14 was > 100 µM (inactive) throughout.

Consider `O=C(NCCc1ccccc1)c1c(O)nc2ccccc2c1O`, for which the GI50 in the experiment on SK-MEL-28, in the experiment with A498, with NCI-H460, in the experiment with HOP-62, in the experiment with HCT-116 and in the experiment with CCRF-CEM was > 100 µM (inactive) in each case. The GI50 with HOP-92, with MOLT-4, with SNB-19, in the experiment with SR, with TK-10 and in the experiment on MDA-MB-231 was > 100 µM (inactive) throughout. The GI50 with Malme-3M, with UACC-257, with Hs-578T and in the experiment on NCI-H226 was > 100 µM (inactive) throughout.

Consider `Cc1ccc(NC(=O)/C(Cc2cc(=O)oc3cc(O)ccc23)=N\NC(C)(C)C)cc1C`, for which the GI50 with SK-MEL-28, in the experiment on A498, in the experiment on NCI-H460, with HCT-116, in the experiment with CCRF-CEM and with HOP-92 was > 100 µM (inactive) throughout. Further, the GI50 with MOLT-4, with UACC-62, in the experiment on SNB-19, in the experiment with SK-MEL-2, in the experiment on SR and with MDA-MB-231 was > 100 µM (inactive) each time. For the same compound, the GI50 with UACC-257, in the experiment on Hs-578T, with NCI-H226 and with M14 was > 100 µM (inactive) throughout.

`Cc1ccc2c(c1)C(=O)C(C1OC(=O)c3ccccc31)C2` (configuration not stated): the GI50 was > 100 µM (inactive) in the experiment on SK-MEL-28; > 100 µM (inactive) in the experiment on A498; > 100 µM (inactive) with NCI-H460; > 100 µM (inactive) in the experiment with HOP-62; 70.3 µM (inactive) in the experiment on HCT-116; 89.7 µM (inactive) in the experiment on CCRF-CEM. Also, the GI50 in the experiment with HOP-92 was > 100 µM (inactive); with MOLT-4 it was 92.5 µM (inactive); in the experiment with UACC-62 it was 96.2 µM (inactive); with SNB-19, 87.3 µM (inactive); in the experiment on SK-MEL-2, > 100 µM (inactive); in the experiment on SR, 74.5 µM (inactive). In addition, the GI50 with TK-10 was 38.5 µM (inactive); in the experiment with MDA-MB-231, > 100 µM (inactive); in the experiment on Malme-3M, > 100 µM (inactive); in the experiment with UACC-257, > 100 µM (inactive); with Hs-578T it was 69.5 µM (inactive); with NCI-H226 it was 30.5 µM (inactive). The GI50 in the experiment with M14 is > 100 µM (inactive).

With `COc1ccc(-c2nc(N)c(C#N)c3c2CCS(=O)(=O)c2ccc(C)cc2-3)cc1OC`, the GI50 in the experiment on SK-MEL-28 was 55.2 µM (inactive); in the experiment with A498, 23.3 µM (inactive); in the experiment with NCI-H460 it was 28.2 µM (inactive); in the experiment with HOP-62, 33.2 µM (inactive); with HCT-116, 31.5 µM (inactive); in the experiment with HOP-92, 38.5 µM (inactive). The GI50 in the experiment on UACC-62 is 15.2 µM (inactive); in the experiment with SNB-19 it was 27.5 µM (inactive); with SK-MEL-2, 16.2 µM (inactive); in the experiment with SR, 0.252 µM (active); with TK-10, 56.1 µM (inactive); in the experiment on MDA-MB-231, 28.6 µM (inactive). Further, the GI50 with Malme-3M is 26.5 µM (inactive); with UACC-257, 22.6 µM (inactive); in the experiment with Hs-578T, 24.6 µM (inactive); in the experiment with NCI-H226, 77.1 µM (inactive); in the experiment with M14 it was 28.4 µM (inactive).

Consider `COC(=O)CCc1ccc2c(c1)CC1(C2)Cc2ccc(CCC(=O)OC)cc2C1`, for which the GI50 is > 100 µM (inactive) in the experiment on A498; 62.7 µM (inactive) in the experiment with HOP-62; > 100 µM (inactive) in the experiment with HCT-116; 15.6 µM (inactive) in the experiment with CCRF-CEM; 35.4 µM (inactive) in the experiment on HOP-92; 29.6 µM (inactive) with MOLT-4. The GI50 in the experiment with UACC-62 was > 100 µM (inactive); with SK-MEL-2, > 100 µM (inactive); with SR, 29.4 µM (inactive); in the experiment on TK-10, > 100 µM (inactive); in the experiment on MDA-MB-231 it was 89.9 µM (inactive); in the experiment on Malme-3M it was 63.1 µM (inactive). Further, the GI50 with UACC-257 is > 100 µM (inactive); with Hs-578T, > 100 µM (inactive); with NCI-H226 it was 38.8 µM (inactive); with M14, > 100 µM (inactive).

For `NC(=O)N(O)c1cccc(Br)c1`, the GI50 in the experiment with SK-MEL-28, with A498, with NCI-H460, with HOP-62, in the experiment with HCT-116 and in the experiment with CCRF-CEM was > 100 µM (inactive) throughout. For the same compound, the GI50 is > 100 µM (inactive) in the experiment on HOP-92; > 100 µM (inactive) with MOLT-4; > 100 µM (inactive) in the experiment on UACC-62; > 100 µM (inactive) with SNB-19; 66.5 µM (inactive) in the experiment on SK-MEL-2; > 100 µM (inactive) in the experiment with SR. Also, the GI50 in the experiment on TK-10, in the experiment with MDA-MB-231, in the experiment with UACC-257, with Hs-578T, with NCI-H226 and in the experiment on M14 was > 100 µM (inactive) in each case.

For `CCN(CC)C(=S)SS(=O)(=O)c1ccc(Cl)cc1`, the GI50 with SK-MEL-28 was 17.9 µM (inactive); in the experiment with A498, > 100 µM (inactive); with NCI-H460, 29 µM (inactive); with HOP-62, 22.7 µM (inactive); with HCT-116 it was 30.3 µM (inactive); in the experiment on HOP-92, 16.9 µM (inactive). For the same compound, the GI50 in the experiment on UACC-62 is 20.5 µM (inactive); in the experiment on SNB-19, 38.3 µM (inactive); in the experiment with SK-MEL-2, 65.6 µM (inactive); with SR, 0.0796 µM (active); in the experiment with TK-10, 67.8 µM (inactive); in the experiment on MDA-MB-231, 34.9 µM (inactive). In addition, the GI50 with Malme-3M is 11.7 µM (inactive); in the experiment with UACC-257, 24.2 µM (inactive); in the experiment on Hs-578T it was 43.5 µM (inactive); in the experiment on NCI-H226, 62.7 µM (inactive); in the experiment on M14, 17.3 µM (inactive).
